Laboratory results as given in PubChem BioAssay AID2060358 (Molecular Pharmacology Branch, DTP, NCI, 2025).
The source made the active and inactive calls. The calls were made as follows: active = viability on the fitted dose curve at most 10% of control; inactive = the rest.

Tested on: 254851-301-R-J1-PDC spheroids, viability % test/control
Test: Anticancer human tumor 254851-301-R-J1-PDC patient-derived colon carcinoma cell line growth inhibition [TAK]
Conditions: spheroids with HUVEC and MSC; for IC50: curve of first compound; for viability, T/C: stronger effect = lower value
From the text: Combinatorial screen of targeted agents with TAK-243 and ipatasertib in multi-cell type tumor spheroids
A high-throughput screen of multi-cell type tumor spheroids was designed to identify active combinations of targeted small molecules and TAK-243 or ipatasertib. Complex spheroids include a stromal component modeled by human endothelial cells (HUVEC) and fibroblasts modeled by human mesenchymal stem cells (MSCs). The concentration ranges selected for each drug and investigational agent were based upon clinically achievable concentrations if the clinical Cmax of the agent was known.
Compounds. The drugs and investigational agents: TAK-243 (785004), ipatasertib (767898), everolimus (733504), selumetinib (741078), bortezomib (756655), trametinib (758246), ixazomib (758254), vemurafenib (761431), dabrafenib (764134), sapanisertib (764658), alpelisib (765974), and copanlisib (816437), were obtained from the National Cancer Institute (NCI) Developmental Therapeutics Program Chemical Repository. The FDA-approved anticancer drug set is available from the NCI Developmental Therapeutics Program. […] The stock solutions were prepared in dimethyl sulfoxide (DMSO, Sigma-Aldrich, St. Louis, MO, cat. D2650) at 800-fold the tested concentration and stored at -70 degrees C prior to their use. All drugs and investigational agents were tested over a range starting from a high concentration at or near the clinical Cmax and decreasing in half-log increments. If the clinical Cmax for an agent had not been determined, the highest concentration tested was 10 microM.
NCI60 Cell Culture. NCI60 cell lines were obtained from the NCI Developmental Therapeutics Program Tumor Repository. For each lot of cells, the Repository performed Applied Biosystems AmpFLSTR Identifiler testing with PCR amplification to confirm consistency with the published Identifier STR profile for each cell line. Cells were kept in continuous culture for no more than 20 passages. The optimal seeding densities for each of the cell lines at each time point assessed were determined prior to performing the concentration response studies. Briefly, the NCI60 human tumor lines were grown as monolayers in RPMI 1640 medium supplemented with 10% FBS and 2 mmol/L L-glutamine.
An additional 2 lines were from the NCI60 cell line panel including melanomas, MALME-3M and SK-MEL-2. Pooled donor human umbilical vein endothelial cells (HUVEC, Lonza, cat. CC-2519) and human mesenchymal stem cells (hMSC, Lonza, cat. PT-2501) were purchased from Lonza (Walkersville, MD).
PDMR cell lines were grown in complete medium (DC medium): Dulbecco's modified Eagle's medium (DMEM)/F12 supplemented with 5% fetal bovine serum (FBS), 2 mM L-glutamine, 100 U/mL penicillin and 100 µg/ml streptomycin, 0.4 µg/ml hydrocortisone, 10 ng/ml epidermal growth factor (EGF) recombinant human protein, 24 µg/mL adenine, and 0.1 mg/mL primocin. During culture from frozen stock vials, PDMR cells were cultured in the same medium containing 10 µM Y-27632 (see Table 3). The PDCs were cultured in complete DMEM/F12 media without 10 microM Y-27632 dihydrochloride for at least two passages prior to the screen. The pooled donor HUVEC and hMSC were cultured in endothelial cell growth medium 2 (PromoCell, Heidelberg, Germany, cat. C-22011) and mesenchymal stem cell growth medium 2 (PromoCell, cat. C-28009), respectively. For all experiments, HUVEC and hMSC were used at passages </=5.
For the pre-screen, cell seeding densities were determined from a titration spanning the range from 5,000 to 313 cells per well. The mct-spheroids including 60% malignant cells, 25% HUVEC and 15% MSC dispensed as a mixture into U-bottom Ultra-Low Attachment 384-well plates (Corning, NY)
High-throughput Drug Combination Screening.
Prior to their inoculation into 384-well plates, malignant cells, HUVEC, and hMSC were removed from T flasks using TrypLE express (Thermo Fisher Scientific, cat. 12605036) and harvested by centrifugation for 5 min at 233 x g. […]
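For IC50 in this document: spheroids exposed to drugs for seven days before viability readout.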
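For viability, T/C in this document: spheroids exposed to drugs for seven days before viability readout.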

## COC1CC2CCC(C)C(O)(O2)C(=O)C(=O)N2CCCCC2C(=O)OC(C(C)CC2CCC(OCCO)C(OC)C2)CC(=O)C(C)C=C(C)C(O)C(OC)C(=O)C(C)CC(C)C=CC=CC=C1C (stereo not given) + CC(C)NCC(C(=O)N1CCN(c2ncnc3c2C(C)CC3O)CC1)c1ccc(Cl)cc1
Second compound 0.3 µM
  IC50: > 100 nM
Second compound 0.949 µM
  IC50: > 100 nM
Second compound 3 µM
  IC50: > 100 nM
Second compound 9.49 µM
  IC50: > 100 nM
Second compound 30 µM
  IC50: > 100 nM
Second compound 0.3 µM, first compound 0.000316 µM
  viability, T/C: 108%
Second compound 0.3 µM, first compound 0.001 µM
  viability, T/C: 117%
Second compound 0.3 µM, first compound 0.00316 µM
  viability, T/C: 99.9%
Second compound 0.3 µM, first compound 0.01 µM
  viability, T/C: 99.2%
Second compound 0.3 µM, first compound 0.0316 µM
  viability, T/C: 96.8%
Second compound 0.3 µM, first compound 0.1 µM
  viability, T/C: 91.7%
Second compound 0.949 µM, first compound 0.000316 µM
  viability, T/C: 115%
Second compound 0.949 µM, first compound 0.001 µM
  viability, T/C: 110%
Second compound 0.949 µM, first compound 0.00316 µM
  viability, T/C: 100%
Second compound 0.949 µM, first compound 0.01 µM
  viability, T/C: 104%
Second compound 0.949 µM, first compound 0.0316 µM
  viability, T/C: 88.1%
Second compound 0.949 µM, first compound 0.1 µM
  viability, T/C: 91.4%
Second compound 3 µM, first compound 0.000316 µM
  viability, T/C: 102%
Second compound 3 µM, first compound 0.001 µM
  viability, T/C: 112%
Second compound 3 µM, first compound 0.00316 µM
  viability, T/C: 97%
Second compound 3 µM, first compound 0.01 µM
  viability, T/C: 94.2%
Second compound 3 µM, first compound 0.0316 µM
  viability, T/C: 92.1%
Second compound 3 µM, first compound 0.1 µM
  viability, T/C: 95.3%
Second compound 9.49 µM, first compound 0.000316 µM
  viability, T/C: 90.7%
Second compound 9.49 µM, first compound 0.001 µM
  outcome: inactive
Second compound 9.49 µM, first compound 0.00316 µM
  viability, T/C: 98%
Second compound 9.49 µM, first compound 0.01 µM
  viability, T/C: 95%
Second compound 9.49 µM, first compound 0.0316 µM
  viability, T/C: 96.2%
Second compound 9.49 µM, first compound 0.1 µM
  viability, T/C: 85.1%
Second compound 30 µM, first compound 0.000316 µM
  viability, T/C: 82.7%
Second compound 30 µM, first compound 0.001 µM
  viability, T/C: 95.2%
Second compound 30 µM, first compound 0.00316 µM
  viability, T/C: 86.4%
Second compound 30 µM, first compound 0.01 µM
  viability, T/C: 77%
Second compound 30 µM, first compound 0.0316 µM
  viability, T/C: 76.4%
Second compound 30 µM, first compound 0.1 µM
  viability, T/C: 77.2%

## Cn1cnc2c(F)c(Nc3ccc(Br)cc3Cl)c(C(=O)NOCCO)cc21 + CC(C)NCC(C(=O)N1CCN(c2ncnc3c2C(C)CC3O)CC1)c1ccc(Cl)cc1
Second compound 0.3 µM
  IC50: 1600 nM
Second compound 0.949 µM
  IC50: 1610 nM
Second compound 3 µM
  IC50: 1630 nM
Second compound 9.49 µM
  IC50: 1540 nM
Second compound 30 µM
  IC50: 1410 nM
Second compound 0.3 µM, first compound 0.00949 µM
  viability, T/C: 110%
Second compound 0.3 µM, first compound 0.03 µM
  viability, T/C: 120%
Second compound 0.3 µM, first compound 0.0949 µM
  viability, T/C: 110%
Second compound 0.3 µM, first compound 0.3 µM
  viability, T/C: 108%
Second compound 0.3 µM, first compound 0.949 µM
  viability, T/C: 77.5%
Second compound 0.3 µM, first compound 3 µM
  viability, T/C: 16.6%
Second compound 0.949 µM, first compound 0.00949 µM
  viability, T/C: 111%
Second compound 0.949 µM, first compound 0.03 µM
  viability, T/C: 108%
Second compound 0.949 µM, first compound 0.0949 µM
  viability, T/C: 118%
Second compound 0.949 µM, first compound 0.3 µM
  viability, T/C: 88.7%
Second compound 0.949 µM, first compound 0.949 µM
  viability, T/C: 78.9%
Second compound 0.949 µM, first compound 3 µM
  viability, T/C: 19.6%
Second compound 3 µM, first compound 0.00949 µM
  viability, T/C: 101%
Second compound 3 µM, first compound 0.03 µM
  viability, T/C: 118%
Second compound 3 µM, first compound 0.0949 µM
  viability, T/C: 115%
Second compound 3 µM, first compound 0.3 µM
  viability, T/C: 105%
Second compound 3 µM, first compound 0.949 µM
  viability, T/C: 79.1%
Second compound 3 µM, first compound 3 µM
  viability, T/C: 17.6%
Second compound 9.49 µM, first compound 0.00949 µM
  viability, T/C: 103%
Second compound 9.49 µM, first compound 0.03 µM
  viability, T/C: 114%
Second compound 9.49 µM, first compound 0.0949 µM
  viability, T/C: 112%
Second compound 9.49 µM, first compound 0.3 µM
  viability, T/C: 102%
Second compound 9.49 µM, first compound 0.949 µM
  viability, T/C: 75.2%
Second compound 9.49 µM, first compound 3 µM
  viability, T/C: 15.3%
Second compound 30 µM, first compound 0.00949 µM
  viability, T/C: 84.6%
Second compound 30 µM, first compound 0.03 µM
  viability, T/C: 92.4%
Second compound 30 µM, first compound 0.0949 µM
  viability, T/C: 105%
Second compound 30 µM, first compound 0.3 µM
  viability, T/C: 83.9%
Second compound 30 µM, first compound 0.949 µM
  viability, T/C: 72.4%
Second compound 30 µM, first compound 3 µM
  viability, T/C: 8.88%
